Assay results as given in patent US10766869B2, “Triazoles for the treatment of demyelinating dieases” (Vertex Pharmaceuticals Incorporated, priority 2015, dated 2020).
Where two headings read alike, the source gives them in different places.

Test system: primary rat mixed cortical cells
Assay: In vitro myelination assay (MBP positive myelin strands, fold myelin pixels above background)
Format: cell-based
Details: Rattus norvegicus; for fold induction at 1 µM: 1.0 μM compound; for fold induction at 10 µM: 10.0 μM compound
In short: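 Mixed cortical culture, P1 rat, 87,500-95,000 cells/well; compound present from seeding, refreshed days 6 and 10; 14 d, 37 °C, 5% CO2. Day 14: PFA fix, anti-MBP + Hoechst. Read-out: fold MBP myelin pixels over untreated, tested at 1.0 and 10.0 μM.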

[1] = read-out: Fold myelin pixels above background relative to baseline of no added compound
[2] = relative to baseline of no added compound, read-out: Fold myelin pixels above background
[3] = relative to baseline of no added compound, read-out: Fold myelin pixels above background, 1.0 μM
[4] = relative to baseline of no added compound, read-out: Fold myelin pixels above background, 10.0 μM

Structure (SMILES): Cc1cc(NCC2CN(CC(C)C)CCO2)cc(Nc2ncn(-c3cc(F)cc(F)c3)n2)c1 (stereo not drawn) [Compound 903, N1-[1-(3,5-difluorophenyl)-1,2,4-triazol-3-yl]-N3-[(4-isobutylmorpholin-2-yl)methyl]-5-methyl-benzene-1,3-diamine]
- fold induction at 1 µM [1]: 10 to 100
- fold induction at 10 µM [1]: 1 to 10

Structure (SMILES): Cc1cc(Nc2ncn(-c3ccccc3)n2)cc(Nc2ncn(-c3ccccc3)n2)c1 [Compound 681, 5-methyl-N1,N3-bis(1-phenyl-1,2,4-triazol-3-yl)benzene-1,3-diamine]
- fold induction at 1 µM [2]: 10 to 100
- fold induction at 10 µM [2]: 1 to 10

Structure (SMILES): COCCN1CCN(c2cc(C)cc(Nc3ncn(-c4ccccc4)n3)c2)CC1 [Compound 253, N-[3-[4-(2-methoxyethyl)piperazin-1-yl]-5-methyl-phenyl]-1-phenyl-1,2,4-triazol-3-amine]
- fold induction at 1 µM [3]: 1000 to 10000
- fold induction at 10 µM [4]: 10 to 100

Structure (SMILES): CC(C)(C)c1cc(Nc2ncn(-c3cccc(F)c3)n2)cc(N2CCN(C3COC3)CC2)c1 [Compound 97, N-[3-tert-butyl-5-[4-(oxetan-3-yl)piperazin-1-yl]phenyl]-1-(3-fluorophenyl)-1,2,4-triazol-3-amine]
- fold induction at 1 µM [3]: 100 to 1000
- fold induction at 10 µM [4]: 100 to 1000

Structure (SMILES): Cc1cc(Nc2ncn(-c3cc(F)cc(F)c3)n2)cc(N2CC(C)(N3CCOCC3)C2)c1 [Compound 683, 1-(3,5-difluorophenyl)-N-[3-methyl-5-(3-methyl-3-morpholino-azetidin-1-yl)phenyl]-1,2,4-triazol-3-amine]
- fold induction at 1 µM [2]: 10 to 100
- fold induction at 10 µM [2]: 10 to 100

Structure (SMILES): Cc1cc(Nc2ncn(-c3cccc(C(F)(F)F)c3)n2)cc(N2CC(N3CCOCC3)C2)c1 [Compound 651, N-[3-methyl-5-(3-morpholinoazetidin-1-yl)phenyl]-1-[3-(trifluoromethyl)phenyl]-1,2,4-triazol-3-amine]
- fold induction at 1 µM [2]: 10 to 100
- fold induction at 10 µM [2]: 1 to 10

Structure (SMILES): CCN(C)Cc1cc(F)cc(-n2cnc(Nc3cc(C)cc(N4CCN(C)CC4)c3)n2)c1 [Compound 390, 1-[3-[[ethyl(methyl)amino]methyl]-5-fluoro-phenyl]-N-[3-methyl-5-(4-methylpiperazin-1-yl)phenyl]-1,2,4-triazol-3-amine]
- fold induction at 1 µM [2]: 10 to 100
- fold induction at 10 µM [2]: 10 to 100

Structure (SMILES): Fc1cc(F)cc(-n2cnc(Nc3cc(Cl)cc(N4CC(N5CCOCC5)C4)c3)n2)c1 [Compound 723, N-[3-chloro-5-(3-morpholinoazetidin-1-yl)phenyl]-1-(3,5-difluorophenyl)-1,2,4-triazol-3-amine]
- fold induction at 1 µM [2]: 10 to 100
- fold induction at 10 µM [2]: 100 to 1000

Structure (SMILES): Cc1cc(Nc2ncn(-c3ccccc3)n2)cc(N2CC(N3CCOCC3)C2)c1 [Compound 704, N-[3-methyl-5-(3-morpholinoazetidin-1-yl)phenyl]-1-phenyl-1,2,4-triazol-3-amine]
- fold induction at 1 µM [2]: 10 to 100
- fold induction at 10 µM [2]: ≤ 1

Structure (SMILES): Cc1cc(Nc2ncn(-c3cc(F)cc(F)c3)n2)cc(N2CCN(CCO)C(C)C2)c1 (stereo not drawn) [Compound 902, 2-[4-[3-[[1-(3,5-difluorophenyl)-1,2,4-triazol-3-yl]amino]-5-methyl-phenyl]-2-methyl-piperazin-1-yl]ethanol]
- fold induction at 1 µM [1]: 1 to 10
- fold induction at 10 µM [1]: ≤ 1

Structure (SMILES): Cc1cc(Nc2ncn(-c3cnccn3)n2)c(F)c(OC2CCOC2)c1 (stereo not drawn) [Compound 952, N-(2-fluoro-5-methyl-3-tetrahydrofuran-3-yloxy-phenyl)-1-pyrazin-2-yl-1,2,4-triazol-3-amine]
- fold induction at 1 µM [1]: 1 to 10
- fold induction at 10 µM [1]: 1 to 10

Structure (SMILES): CCc1cc(Nc2ncn(-c3ccc(C(F)(F)F)cc3)n2)cc(N2CCN(C3COC3)CC2)c1 [Compound 322, N-[3-ethyl-5-[4-(oxetan-3-yl)piperazin-1-yl]phenyl]-1-[4-(trifluoromethyl)phenyl]-1,2,4-triazol-3-amine]
- fold induction at 1 µM [3]: 1 to 10
- fold induction at 10 µM [4]: 1 to 10

Structure (SMILES): COCC1CCN(c2cc(C)cc(Nc3ncn(-c4cc(F)cc(F)c4)n3)n2)CC1 [Compound 619, N-[1-(3,5-difluorophenyl)-1,2,4-triazol-3-yl]-6-[4-(methoxymethyl)-1-piperidyl]-4-methyl-pyridin-2-amine]
- fold induction at 1 µM [2]: 1 to 10
- fold induction at 10 µM [2]: 1 to 10

Structure (SMILES): N#Cc1cc(Nc2ncn(-c3ccccc3)n2)cc(N2CCN(C3COC3)CC2)c1 [Compound 592, 3-[4-(oxetan-3-yl)piperazin-1-yl]-5-[(1-phenyl-1,2,4-triazol-3-yl)amino]benzonitrile]
- fold induction at 1 µM [2]: 1 to 10
- fold induction at 10 µM [2]: ≤ 1

Structure (SMILES): Cc1cc(Nc2ncn(-c3cc(C)ccn3)n2)cc(N2CCN(C3COC3)CC2)c1 [Compound 54, N-[3-methyl-5-[4-(oxetan-3-yl)piperazin-1-yl]phenyl]-1-(4-methyl-2-pyridyl)-1,2,4-triazol-3-amine]
- fold induction at 1 µM [3]: 10 to 100
- fold induction at 10 µM [4]: 100 to 1000

Structure (SMILES): CNC1CCN(c2cc(C)cc(Nc3ncn(-c4cc(F)cc(F)c4)n3)c2)C1 (stereo not drawn) [Compound 267, 1-(3,5-difluorophenyl)-N-[3-methyl-5-[3-(methylamino)pyrrolidin-1-yl]phenyl]-1,2,4-triazol-3-amine]
- fold induction at 1 µM [3]: 10 to 100
- fold induction at 10 µM [4]: ≤ 1

Structure (SMILES): Cc1cc(Nc2ncn(-c3ccc(F)c(F)c3)n2)cc(O[C@@H]2CCN(C3COC3)C2)c1 [Compound 46, 1-(3,4-difluorophenyl)-N-[3-methyl-5-[(3R)-1-(oxetan-3-yl)pyrrolidin-3-yl]oxy-phenyl]-1,2,4-triazol-3-amine]
- fold induction at 1 µM [3]: 1000 to 10000
- fold induction at 10 µM [4]: 1 to 10

Structure (SMILES): c1cncc(-n2cnc(Nc3cc(C4CCOCC4)cc(C4CCOCC4)c3)n2)c1 [Compound 250, N-[3,5-di(tetrahydropyran-4-yl)phenyl]-1-(3-pyridyl)-1,2,4-triazol-3-amine]
- fold induction at 1 µM [3]: 100 to 1000
- fold induction at 10 µM [4]: 10 to 100

Structure (SMILES): Fc1cc(F)cc(-n2cnc(Nc3cc(C4CC4)nc(N4CCOCC4)c3)n2)c1 [Compound 405, 2-cyclopropyl-N-[1-(3,5-difluorophenyl)-1,2,4-triazol-3-yl]-6-morpholino-pyridin-4-amine]
- fold induction at 1 µM [2]: 100 to 1000
- fold induction at 10 µM [2]: 1000 to 10000

Structure (SMILES): CCN1CCN(c2cc(C(F)(F)F)cc(Nc3ncn(-c4cc(F)cc(F)c4)n3)n2)CC1 [Compound 654, N-[1-(3,5-difluorophenyl)-1,2,4-triazol-3-yl]-6-(4-ethylpiperazin-1-yl)-4-(trifluoromethyl)pyridin-2-amine]
- fold induction at 1 µM [2]: 1 to 10
- fold induction at 10 µM [2]: 1 to 10

Structure (SMILES): Cc1cc(Nc2ncn(-c3cc(F)cc(F)c3F)n2)cc(N2CCN(C3COC3)CC2)c1 [Compound 484, N-[3-methyl-5-[4-(oxetan-3-yl)piperazin-1-yl]phenyl]-1-(2,3,5-trifluorophenyl)-1,2,4-triazol-3-amine]
- fold induction at 1 µM [2]: ≤ 1
- fold induction at 10 µM [2]: ≤ 1

Structure (SMILES): Cc1cc(Nc2ncn(-c3cc(F)cc(F)c3)n2)cc(OC2CCOC2)c1 (stereo not drawn) [Compound 703, 1-(3,5-difluorophenyl)-N-(3-methyl-5-tetrahydrofuran-3-yloxy-phenyl)-1,2,4-triazol-3-amine]
- fold induction at 1 µM [2]: 10 to 100
- fold induction at 10 µM [2]: 1 to 10

Structure (SMILES): Fc1ccc(-n2cnc(Nc3cc(Cl)cc(N4CC(N5CCOCC5)C4)c3)n2)cc1F [Compound 784, N-[3-chloro-5-(3-morpholinoazetidin-1-yl)phenyl]-1-(3,4-difluorophenyl)-1,2,4-triazol-3-amine]
- fold induction at 1 µM [2]: 10 to 100
- fold induction at 10 µM [2]: 10 to 100

Structure (SMILES): Cc1cc(NC2(C)COC2)cc(Nc2ncn(-c3cc(F)cc(F)c3)n2)c1F [Compound 1016, N3-[1-(3,5-difluorophenyl)-1,2,4-triazol-3-yl]-4-fluoro-5-methyl-N1-(3-methyloxetan-3-yl)benzene-1,3-diamine]
- fold induction at 1 µM [1]: 10 to 100
- fold induction at 10 µM [1]: 1 to 10

Structure (SMILES): Cc1cc(Nc2ncn(-c3cc(F)cc(F)c3)n2)cc(N2CCN(CC(C)(C)O)C(C)C2)c1 (stereo not drawn) [Compound 941, 1-[4-[3-[[1-(3,5-difluorophenyl)-1,2,4-triazol-3-yl]amino]-5-methyl-phenyl]-2-methyl-piperazin-1-yl]-2-methyl-propan-2-ol]
- fold induction at 1 µM [1]: 1 to 10
- fold induction at 10 µM [1]: 1 to 10

Structure (SMILES): Cc1cc(Nc2ncn(-c3cc(F)cc(F)c3)n2)cc(N2CCC(OCCF)CC2)c1 [Compound 950, 1-(3,5-difluorophenyl)-N-[3-[4-(2-fluoroethoxy)-1-piperidyl]-5-methyl-phenyl]-1,2,4-triazol-3-amine]
- fold induction at 1 µM [1]: 10 to 100
- fold induction at 10 µM [1]: 1 to 10

Structure (SMILES): COc1c(C)cc(N2CCN(C3COC3)CC2)cc1Nc1ncn(-c2cnccn2)n1 [Compound 471, N-[2-methoxy-3-methyl-5-[4-(oxetan-3-yl)piperazin-1-yl]phenyl]-1-pyrazin-2-yl-1,2,4-triazol-3-amine]
- fold induction at 1 µM [2]: 1 to 10
- fold induction at 10 µM [2]: ≤ 1

Structure (SMILES): Fc1ccc(-n2cnc(Nc3cc(C(F)(F)F)cc(N4CCN(C5COC5)CC4)n3)n2)cc1 [Compound 728, N-[1-(4-fluorophenyl)-1,2,4-triazol-3-yl]-6-[4-(oxetan-3-yl)piperazin-1-yl]-4-(trifluoromethyl)pyridin-2-amine]
- fold induction at 1 µM [2]: 10 to 100
- fold induction at 10 µM [2]: ≤ 1

Structure (SMILES): Cc1cc(Nc2ncn(-c3ccccc3)n2)cc(C2=CCN(C3COC3)C2)c1 [Compound 160, N-[3-methyl-5-[1-(oxetan-3-yl)-2,5-dihydropyrrol-3-yl]phenyl]-1-phenyl-1,2,4-triazol-3-amine]
- fold induction at 1 µM [3]: 1000 to 10000
- fold induction at 10 µM [4]: ≤ 1

Structure (SMILES): Fc1cc(Nc2ncn(-c3ccnc(F)c3)n2)cc(N2CCN(C3COC3)CC2)c1 [Compound 783, N-[3-fluoro-5-[4-(oxetan-3-yl)piperazin-1-yl]phenyl]-1-(2-fluoro-4-pyridyl)-1,2,4-triazol-3-amine]
- fold induction at 1 µM [2]: ≤ 1
- fold induction at 10 µM [2]: 1 to 10
